Test results: the NIST ThermoML archive (doi:10.1021/je060271a)
“And” between values parts separate entries of the source, which are not always exact repeats. Equal entries are not always repeated. Numbers after ± are expanded uncertainties.

Conditions: 343.15 K, Liquid, Vibrating tube method

CCCCCCC(=O)OCC(COC(=O)CCCCCC)(COC(=O)CCCCCC)COC(=O)CCCCCC [pentaerythritol tetraheptanoate]
Conditions	mass density
23684 kPa	957.2 ± 1.2 kg/m3
23715 kPa	957.3 ± 1.2 kg/m3
23750 kPa	957.4 ± 1.2 kg/m3
23753 kPa	957.2 ± 1.2 kg/m3
23785 kPa	957.4 ± 1.2 kg/m3
23818 kPa	957.3 ± 1.2 kg/m3
23850 kPa	957.4 ± 1.2 kg/m3
23889 kPa	957.4 ± 1.2 kg/m3
23920 kPa	957.3 ± 1.2 kg/m3
23952 kPa	957.4 ± 1.2 kg/m3
23991 kPa	957.4 ± 1.2 kg/m3
24024 kPa	957.5 ± 1.2 kg/m3
24056 kPa	957.6 ± 1.2 kg/m3
24094 kPa	957.5 ± 1.2 kg/m3
24127 kPa	957.6 ± 1.2 kg/m3
24128 kPa	957.6 ± 1.2 kg/m3
24160 kPa	957.5 ± 1.2 kg/m3
24199 kPa	957.7 ± 1.2 kg/m3
24200 kPa	957.5 ± 1.2 kg/m3
24232 kPa	957.6 ± 1.2 kg/m3
24233 kPa	957.6 ± 1.2 kg/m3
24265 kPa	957.6 ± 1.2 kg/m3
24266 kPa	957.8 ± 1.2 kg/m3
24299 kPa	957.6 ± 1.2 kg/m3
24306 kPa	957.6 ± 1.2 kg/m3
24334 kPa	957.8 ± 1.2 kg/m3
24339 kPa	957.7 ± 1.2 kg/m3
24372 kPa	957.7 ± 1.2 kg/m3
24373 kPa	957.8 ± 1.2 kg/m3
24407 kPa	957.7 ± 1.2 kg/m3
24411 kPa	957.8 ± 1.2 kg/m3
24440 kPa	957.7 ± 1.2 kg/m3
24445 kPa	957.8 ± 1.2 kg/m3
24478 kPa	957.8 ± 1.2 kg/m3
24480 kPa	957.8 ± 1.2 kg/m3
24513 kPa	957.8 ± 1.2 kg/m3
24519 kPa	957.7 ± 1.2 kg/m3
24552 kPa	957.7 ± 1.2 kg/m3
24554 kPa	957.8 ± 1.2 kg/m3
24586 kPa	957.9 ± 1.2 kg/m3
24621 kPa	958 ± 1.2 kg/m3
24626 kPa	957.9 ± 1.2 kg/m3
24661 kPa	957.9 ± 1.2 kg/m3
24696 kPa	957.9 ± 1.2 kg/m3
24737 kPa	957.9 ± 1.2 kg/m3
24771 kPa	957.9 ± 1.2 kg/m3
24806 kPa	957.9 ± 1.2 kg/m3
24840 kPa	958 ± 1.2 kg/m3
24882 kPa	958 ± 1.2 kg/m3
24916 kPa	958.1 ± 1.2 kg/m3
24917 kPa	958.1 ± 1.2 kg/m3
24952 kPa	958.1 ± 1.2 kg/m3 and 958.2 ± 1.2 kg/m3
24988 kPa	958.2 ± 1.2 kg/m3
24993 kPa	958.1 ± 1.2 kg/m3
25028 kPa	958.2 ± 1.2 kg/m3
25070 kPa	958.2 ± 1.2 kg/m3
25105 kPa	958.1 ± 1.2 kg/m3
25141 kPa	958.2 ± 1.2 kg/m3
25148 kPa	958.1 ± 1.2 kg/m3
25184 kPa	958.3 ± 1.2 kg/m3
25220 kPa	958.2 ± 1.2 kg/m3
25250 kPa	958.4 ± 1.2 kg/m3
25256 kPa	958.1 ± 1.2 kg/m3
25279 kPa	958.4 ± 1.2 kg/m3
25292 kPa	958.2 ± 1.2 kg/m3
25308 kPa	958.3 ± 1.2 kg/m3
25336 kPa	958.4 ± 1.2 kg/m3
25343 kPa	958.5 ± 1.2 kg/m3
25372 kPa	958.2 ± 1.2 kg/m3 and 958.5 ± 1.2 kg/m3
25402 kPa	958.5 ± 1.2 kg/m3
25415 kPa	958.3 ± 1.2 kg/m3
25452 kPa	958.3 ± 1.2 kg/m3
25488 kPa	958.3 ± 1.2 kg/m3
25525 kPa	958.4 ± 1.2 kg/m3
25530 kPa	958.5 ± 1.2 kg/m3
25560 kPa	958.5 ± 1.2 kg/m3
25570 kPa	958.4 ± 1.2 kg/m3
25590 kPa	958.5 ± 1.2 kg/m3
25607 kPa	958.6 ± 1.2 kg/m3
25626 kPa	958.5 ± 1.2 kg/m3
25645 kPa	958.4 ± 1.2 kg/m3
25656 kPa	958.6 ± 1.2 kg/m3
25687 kPa	958.6 ± 1.2 kg/m3
25692 kPa	958.5 ± 1.2 kg/m3
25723 kPa	958.6 ± 1.2 kg/m3
25730 kPa	958.5 ± 1.2 kg/m3
25752 kPa	958.6 ± 1.2 kg/m3
25767 kPa	958.6 ± 1.2 kg/m3
25788 kPa	958.7 ± 1.2 kg/m3
25805 kPa	958.7 ± 1.2 kg/m3
25819 kPa	958.6 ± 1.2 kg/m3
25843 kPa	958.6 ± 1.2 kg/m3
25849 kPa	958.6 ± 1.2 kg/m3
25885 kPa	958.7 ± 1.2 kg/m3
25888 kPa	958.5 ± 1.2 kg/m3
25915 kPa	958.7 ± 1.2 kg/m3
25927 kPa	958.6 ± 1.2 kg/m3
25946 kPa	958.8 ± 1.2 kg/m3
25966 kPa	958.7 ± 1.2 kg/m3
25983 kPa	958.8 ± 1.2 kg/m3
26012 kPa	958.8 ± 1.2 kg/m3
26014 kPa	958.9 ± 1.2 kg/m3
26045 kPa	958.9 ± 1.2 kg/m3
26050 kPa	958.8 ± 1.2 kg/m3
26082 kPa	958.8 ± 1.2 kg/m3
26090 kPa	958.7 ± 1.2 kg/m3
26114 kPa	958.9 ± 1.2 kg/m3
26136 kPa	958.8 ± 1.2 kg/m3
26145 kPa	958.8 ± 1.2 kg/m3
26176 kPa	958.9 ± 1.2 kg/m3 and 958.8 ± 1.2 kg/m3
26214 kPa	958.9 ± 1.2 kg/m3
26217 kPa	958.9 ± 1.2 kg/m3
26244 kPa	959 ± 1.2 kg/m3
26256 kPa	958.9 ± 1.2 kg/m3
26282 kPa	958.9 ± 1.2 kg/m3
26296 kPa	959 ± 1.2 kg/m3
26313 kPa	959 ± 1.2 kg/m3
26343 kPa	958.9 ± 1.2 kg/m3
26345 kPa	959 ± 1.2 kg/m3
26383 kPa	959 ± 1.2 kg/m3 and 959.1 ± 1.2 kg/m3
26414 kPa	958.9 ± 1.2 kg/m3
26430 kPa	959 ± 1.2 kg/m3
26447 kPa	959 ± 1.2 kg/m3
26470 kPa	959 ± 1.2 kg/m3
26485 kPa	959.1 ± 1.2 kg/m3
26510 kPa	959 ± 1.2 kg/m3
26518 kPa	959.2 ± 1.2 kg/m3
26549 kPa	959.1 ± 1.2 kg/m3
26550 kPa	959.2 ± 1.2 kg/m3
26583 kPa	959.2 ± 1.2 kg/m3
26597 kPa	959.3 ± 1.2 kg/m3
26622 kPa	959.1 ± 1.2 kg/m3
26638 kPa	959.2 ± 1.2 kg/m3
26654 kPa	959.2 ± 1.2 kg/m3
26679 kPa	959.1 ± 1.2 kg/m3
26693 kPa	959.1 ± 1.2 kg/m3
26725 kPa	959.3 ± 1.2 kg/m3
26729 kPa	959.2 ± 1.2 kg/m3
26758 kPa	959.2 ± 1.2 kg/m3
26771 kPa	959.3 ± 1.2 kg/m3
26791 kPa	959.3 ± 1.2 kg/m3
26812 kPa	959.3 ± 1.2 kg/m3
26831 kPa	959.4 ± 1.2 kg/m3
26863 kPa	959.2 ± 1.2 kg/m3
26864 kPa	959.3 ± 1.2 kg/m3
26898 kPa	959.4 ± 1.2 kg/m3
26905 kPa	959.3 ± 1.2 kg/m3
26939 kPa	959.3 ± 1.2 kg/m3
26949 kPa	959.3 ± 1.2 kg/m3
26999 kPa	959.3 ± 1.2 kg/m3
27006 kPa	959.3 ± 1.2 kg/m3
27037 kPa	959.4 ± 1.2 kg/m3
27071 kPa	959.4 ± 1.2 kg/m3
27081 kPa	959.5 ± 1.2 kg/m3
27111 kPa	959.5 ± 1.2 kg/m3
27114 kPa	959.5 ± 1.2 kg/m3
27145 kPa	959.5 ± 1.2 kg/m3
27148 kPa	959.5 ± 1.2 kg/m3
27186 kPa	959.5 ± 1.2 kg/m3
27189 kPa	959.6 ± 1.2 kg/m3
27221 kPa	959.5 ± 1.2 kg/m3
27224 kPa	959.6 ± 1.2 kg/m3
27256 kPa	959.5 ± 1.2 kg/m3
27258 kPa	959.6 ± 1.2 kg/m3
27290 kPa	959.6 ± 1.2 kg/m3
27300 kPa	959.5 ± 1.2 kg/m3
27332 kPa	959.6 ± 1.2 kg/m3
27335 kPa	959.7 ± 1.2 kg/m3
27367 kPa	959.7 ± 1.2 kg/m3
27371 kPa	959.6 ± 1.2 kg/m3
27402 kPa	959.6 ± 1.2 kg/m3
27408 kPa	959.7 ± 1.2 kg/m3
27444 kPa	959.6 ± 1.2 kg/m3
27447 kPa	959.7 ± 1.2 kg/m3
27479 kPa	959.7 ± 1.2 kg/m3
27514 kPa	959.7 ± 1.2 kg/m3
27556 kPa	959.7 ± 1.2 kg/m3
27590 kPa	959.8 ± 1.2 kg/m3
27592 kPa	959.8 ± 1.2 kg/m3
27618 kPa	959.8 ± 1.2 kg/m3
27627 kPa	959.8 ± 1.2 kg/m3
27670 kPa	959.9 ± 1.2 kg/m3
27698 kPa	959.7 ± 1.2 kg/m3
27742 kPa	959.8 ± 1.2 kg/m3
27786 kPa	959.9 ± 1.2 kg/m3
27822 kPa	959.8 ± 1.2 kg/m3
27858 kPa	959.9 ± 1.5 kg/m3
27877 kPa	959.9 ± 1.2 kg/m3
27902 kPa	960.1 ± 1.2 kg/m3
27910 kPa	960 ± 1.2 kg/m3
27939 kPa	960 ± 1.2 kg/m3
27975 kPa	959.9 ± 1.2 kg/m3
28012 kPa	959.9 ± 1.2 kg/m3
28056 kPa	960 ± 1.2 kg/m3
28087 kPa	960.2 ± 1.2 kg/m3
28093 kPa	960 ± 1.2 kg/m3
28116 kPa	960.2 ± 1.2 kg/m3
28137 kPa	960.1 ± 1.2 kg/m3
28144 kPa	960.1 ± 1.2 kg/m3
28175 kPa	960.1 ± 1.2 kg/m3
28178 kPa	960.2 ± 1.2 kg/m3
28207 kPa	960.1 ± 1.2 kg/m3
28213 kPa	960.2 ± 1.2 kg/m3
28236 kPa	960.1 ± 1.2 kg/m3
28251 kPa	960.2 ± 1.2 kg/m3
28269 kPa	960.2 ± 1.2 kg/m3
28288 kPa	960.2 ± 1.2 kg/m3
28298 kPa	960.3 ± 1.2 kg/m3
28327 kPa	960.2 ± 1.2 kg/m3
28333 kPa	960.2 ± 1.2 kg/m3
28361 kPa	960.4 ± 1.2 kg/m3
28370 kPa	960.2 ± 1.2 kg/m3
28389 kPa	960.3 ± 1.2 kg/m3
28416 kPa	960.3 ± 1.2 kg/m3
28418 kPa	960.3 ± 1.2 kg/m3
28453 kPa	960.3 ± 1.2 kg/m3
28454 kPa	960.3 ± 1.2 kg/m3
28476 kPa	960.5 ± 1.2 kg/m3
28492 kPa	960.3 ± 1.2 kg/m3
28511 kPa	960.3 ± 1.2 kg/m3
28538 kPa	960.4 ± 1.2 kg/m3
28540 kPa	960.4 ± 1.2 kg/m3
28576 kPa	960.4 ± 1.2 kg/m3
28605 kPa	960.4 ± 1.2 kg/m3
